Experimental data taken from US12624018B1, “Inhibitors of RIPK2 and medical uses thereof” (Odyssey Therapeutics, Inc., priority 2022, dated 2026).

Each molecule was assayed against T1, RIPK2 enzyme (Homo sapiens, UniProt O43353) (assay: RIPK2 inhibition (ADP-Glo Kinase Assay)). Details: RIPK2 5 nM, ATP 150 μM, MBP substrate, read-out: RIPK2 IC50.
T1 construct: purchased Carna 09-128
Type: biochemical
Summary of the method: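 Human RIPK2 (5 nM) preincubated with compound 30 min at room temperature in 50 mM HEPES pH 7.5, 10 mM MgCl2, 2 mM DTT, 1 mM EGTA, 0.01% Brij-35, 0.05% BSA; native swine MBP as substrate. ADP formed quantified by ADP-Glo luminescence; percent inhibition relative to DMSO and no-enzyme controls.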

T1 sequence (O43353 1-299 limits assumed): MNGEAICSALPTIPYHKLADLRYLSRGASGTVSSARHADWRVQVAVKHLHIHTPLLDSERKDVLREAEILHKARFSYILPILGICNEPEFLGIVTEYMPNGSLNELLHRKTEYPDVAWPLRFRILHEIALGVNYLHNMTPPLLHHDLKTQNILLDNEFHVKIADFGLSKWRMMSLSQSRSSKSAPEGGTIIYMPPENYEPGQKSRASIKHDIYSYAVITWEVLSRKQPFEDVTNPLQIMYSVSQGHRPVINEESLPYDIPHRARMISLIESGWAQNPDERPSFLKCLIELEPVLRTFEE

| SMILES | IC50 |
| --- | --- |
| Cc1c(Oc2ccnc3ccc(C(=O)N4CC(F)C4)cc23)ccc(CC(=O)Nc2cnn(C(C)(C)C)c2)c1F [Compound 345, N-(1-(tert-butyl)-1H-pyrazol-4-yl)-2-(2-fluoro-4-((6-(3-fluoro-azetidine-1-carbonyl)quinolin-4-yl)oxy)-3-methylphenyl) acetamide] | < 2.5 nM |
| Cc1c(Oc2ccnc3ccc(C(=O)N4CC(C#N)C4)cc23)ccc(CC(=O)Nc2cnn(C(C)(C)C)c2)c1F [Compound 346, N-(1-(tert-butyl)-1H-pyrazol-4-yl)-2-(4-((6-(3-cyano-azetidine-1-carbonyl)quinolin-4-yl)oxy)-2-fluoro-3-methylphenyl) acetamide] | < 2.5 nM |
| Cc1c(Oc2ccnc3ccc(C(=O)N4CC5(COC5)C4)cc23)ccc(CC(=O)Nc2cnn(C(C)(C)C)c2)c1F [Compound 347, 2-(4-((6-(2-oxa-6-azaspiro[3.3]heptane-6-carbonyl)quinolin-4-yl)oxy)-2-fluoro-3-methyl-phenyl)-N-(1-(tert-butyl)-1H-pyrazol-4-yl)acetamide] | < 2.5 nM |
| Cc1c(Oc2ccnc3ccc(C(=O)N4CC(O)C4)cc23)ccc(CC(=O)Nc2cnn(C(C)(C)C)c2)c1F [Compound 348, N-(1-(tert-butyl)-1H-pyrazol-4-yl)-2-(2-fluoro-4-((6-(3-hydroxy-azetidine-1-carbonyl)quinolin-4-yl)oxy)-3-methyl-phenyl) acetamide] | < 2.5 nM |
| Cc1c(Oc2ccnc3ccc(C(=O)N4CC(N)C4)cc23)ccc(CC(=O)Nc2cnn(C(C)(C)C)c2)c1F [Compound 349, 2-(4-((6-(3-amino-azetidine-1-carbonyl)quinolin-4-yl)oxy)-2-fluoro-3-methyl-phenyl)-N-(1-(tert-butyl)-1H-pyrazol-4-yl)acetamide] | < 2.5 nM |
| Cc1c(Oc2ccnc3ccc(C(=O)N4CCCC4)cc23)ccc(CC(=O)Nc2cnn(C(C)(C)C)c2)c1F [Compound 350, N-(1-(tert-butyl)-1H-pyrazol-4-yl)-2-(2-fluoro-3-methyl-4-((6-(pyrrolidine-1-carbonyl)quinolin-4-yl)oxy)phenyl) acetamide] | < 2.5 nM |
| Cc1c(Oc2ccnc3ccc(C(=O)N4CCOCC4)cc23)ccc(CC(=O)Nc2cnn(C(C)(C)C)c2)c1F [Compound 355, N-(1-(tert-butyl)-1H-pyrazol-4-yl)-2-(2-fluoro-3-methyl-4-((6-(morpholine-4-carbonyl)quinolin-4-yl)oxy)phenyl) acetamide] | < 2.5 nM |
| Cc1c(Oc2ccnc3ccc(C(=O)N4CCNCC4)cc23)ccc(CC(=O)Nc2cnn(C(C)(C)C)c2)c1F [Compound 356, N-(1-(tert-butyl)-1H-pyrazol-4-yl)-2-(2-fluoro-3-methyl-4-((6-(piperazine-1-carbonyl)quinolin-4-yl)oxy)phenyl) acetamide] | < 2.5 nM |
| Cc1c(Oc2ccnc3ccc(C(=O)N4CCC(O)CC4)cc23)ccc(CC(=O)Nc2cnn(C(C)(C)C)c2)c1F [Compound 357, N-(1-(tert-butyl)-1H-pyrazol-4-yl)-2-(2-fluoro-4-((6-(4-hydroxy-piperidine-1-carbonyl)quinolin-4-yl)oxy)-3-methyl-phenyl) acetamide] | < 2.5 nM |
| Cc1cc(CC(=O)Nc2cnn(C(C)(C)C)c2)c(F)cc1Oc1ccnc2ccc(C(=O)O)cc12 [Compound 358, 4-(4-(2-((1-(tert-butyl)-1H-pyrazol-4-yl)amino)-2-oxoethyl)-5-fluoro-2-methyl-phenoxy) quinoline-6-carboxylic acid] | < 2.5 nM |
| Cc1cc(CC(=O)Nc2cnn(C(C)(C)C)c2)c(F)cc1Oc1ccnc2ccc(C(=O)N(C)C)cc12 [Compound 361, 4-(4-(2-((1-(tert-butyl)-1H-pyrazol-4-yl)amino)-2-oxoethyl)-5-fluoro-2-methyl-phenoxy)-N,N-dimethyl-quinoline-6-carboxamide] | < 2.5 nM |
| Cc1cc(CC(=O)Nc2cnn(C(C)(C)C)c2)c(F)cc1Oc1ccnc2ccc(C(=O)NCC(F)(F)F)cc12 [Compound 362, 4-(4-(2-((1-(tert-butyl)-1H-pyrazol-4-yl)amino)-2-oxoethyl)-5-fluoro-2-methyl-phenoxy)-N-(2,2,2-trifluoroethyl) quinoline-6-carboxamide] | < 2.5 nM |
| CCNC(=O)c1ccc2nccc(Oc3cc(F)c(CC(=O)Nc4cnn(C(C)(C)C)c4)cc3C)c2c1 [Compound 363, 4-(4-(2-((1-(tert-butyl)-1H-pyrazol-4-yl)amino)-2-oxoethyl)-5-fluoro-2-methyl-phenoxy)-N-ethyl-quinoline-6-carboxamide] | < 2.5 nM |
| Cc1cc(CC(=O)Nc2cnn(C(C)(C)C)c2)c(F)cc1Oc1ccnc2ccc(C(=O)NCCO)cc12 [Compound 364, 4-(4-(2-((1-(tert-butyl)-1H-pyrazol-4-yl)amino)-2-oxoethyl)-5-fluoro-2-methyl-phenoxy)-N-(2-hydroxy-ethyl) quinoline-6-carboxamide] | < 2.5 nM |
| Cc1cc(CC(=O)Nc2cnn(C(C)(C)C)c2)c(F)cc1Oc1ccnc2ccc(C(=O)N(C)CCO)cc12 [Compound 365, 4-(4-(2-((1-(tert-butyl)-1H-pyrazol-4-yl)amino)-2-oxoethyl)-5-fluoro-2-methyl-phenoxy)-N-(2-hydroxy-ethyl)-N-methyl-quinoline-6-carboxamide] | < 2.5 nM |
| Cc1cc(CC(=O)Nc2cnn(C(C)(C)C)c2)c(F)cc1Oc1ccnc2ccc(C(=O)N(CCO)CCO)cc12 [Compound 366, 4-(4-(2-((1-(tert-butyl)-1H-pyrazol-4-yl)amino)-2-oxoethyl)-5-fluoro-2-methyl-phenoxy)-N,N-bis(2-hydroxyethyl) quinoline-6-carboxamide] | < 2.5 nM |
| COCCNC(=O)c1ccc2nccc(Oc3cc(F)c(CC(=O)Nc4cnn(C(C)(C)C)c4)cc3C)c2c1 [Compound 367, 4-(4-(2-((1-(tert-butyl)-1H-pyrazol-4-yl)amino)-2-oxoethyl)-5-fluoro-2-methyl-phenoxy)-N-(2-methoxy-ethyl) quinoline-6-carboxamide] | < 2.5 nM |
| Cc1cc(CC(=O)Nc2cnn(C(C)(C)C)c2)c(F)cc1Oc1ccnc2ccc(C(=O)N3CCC3)cc12 [Compound 369, 2-(4-((6-(azetidine-1-carbonyl)quinolin-4-yl)oxy)-2-fluoro-5-methyl-phenyl)-N-(1-(tert-butyl)-1H-pyrazol-4-yl)acetamide] | < 2.5 nM |
| Cc1cc(CC(=O)Nc2cnn(C(C)(C)C)c2)c(F)cc1Oc1ccnc2ccc(C(=O)N3CC(F)C3)cc12 [Compound 370, N-(1-(tert-butyl)-1H-pyrazol-4-yl)-2-(2-fluoro-4-((6-(3-fluoro-azetidine-1-carbonyl)quinolin-4-yl)oxy)-5-methyl-phenyl) acetamide] | < 2.5 nM |
| Cc1cc(CC(=O)Nc2cnn(C(C)(C)C)c2)c(F)cc1Oc1ccnc2ccc(C(=O)N3CC(C#N)C3)cc12 [Compound 371, N-(1-(tert-butyl)-1H-pyrazol-4-yl)-2-(4-((6-(3-cyano-azetidine-1-carbonyl)quinolin-4-yl)oxy)-2-fluoro-5-methyl-phenyl) acetamide] | < 2.5 nM |
| Cc1cc(CC(=O)Nc2cnn(C(C)(C)C)c2)c(F)cc1Oc1ccnc2ccc(C(=O)N3CC4(COC4)C3)cc12 [Compound 372, 2-(4-((6-(2-oxa-6-azaspiro[3.3]heptane-6-carbonyl)quinolin-4-yl)oxy)-2-fluoro-5-methyl-phenyl)-N-(1-(tert-butyl)-1H-pyrazol-4-yl)acetamide] | < 2.5 nM |
| Cc1cc(CC(=O)Nc2cnn(C(C)(C)C)c2)c(F)cc1Oc1ccnc2ccc(C(=O)N3CC(O)C3)cc12 [Compound 373, N-(1-(tert-butyl)-1H-pyrazol-4-yl)-2-(2-fluoro-4-((6-(3-hydroxy-azetidine-1-carbonyl)quinolin-4-yl)oxy)-5-methylphenyl) acetamide] | < 2.5 nM |
| Cc1cc(CC(=O)Nc2cnn(C(C)(C)C)c2)c(F)cc1Oc1ccnc2ccc(C(=O)N3CC(N)C3)cc12 [Compound 374, 2-(4-((6-(3-amino-azetidine-1-carbonyl)quinolin-4-yl)oxy)-2-fluoro-5-methyl-phenyl)-N-(1-(tert-butyl)-1H-pyrazol-4-yl)acetamide] | < 2.5 nM |
| Cc1cc(CC(=O)Nc2cnn(C(C)(C)C)c2)c(F)cc1Oc1ccnc2ccc(C(=O)N3CCCC3)cc12 [Compound 377, N-(1-(tert-butyl)-1H-pyrazol-4-yl)-2-(2-fluoro-5-methyl-4-((6-(pyrrolidine-1-carbonyl)quinolin-4-yl)oxy)phenyl) acetamide] | < 2.5 nM |
| Cc1cc(CC(=O)Nc2cnn(C(C)(C)C)c2)c(F)cc1Oc1ccnc2ccc(C(=O)N3CCOCC3)cc12 [Compound 378, N-(1-(tert-butyl)-1H-pyrazol-4-yl)-2-(2-fluoro-5-methyl-4-((6-(morpholine-4-carbonyl)quinolin-4-yl)oxy)phenyl) acetamide] | < 2.5 nM |
| Cc1cc(CC(=O)Nc2cnn(C(C)(C)C)c2)c(F)cc1Oc1ccnc2ccc(C(=O)N3CCNCC3)cc12 [Compound 379, N-(1-(tert-butyl)-1H-pyrazol-4-yl)-2-(2-fluoro-5-methyl-4-((6-(piperazine-1-carbonyl)quinolin-4-yl)oxy)phenyl) acetamide] | < 2.5 nM |
| Cc1cc(CC(=O)Nc2cnn(C(C)(C)C)c2)c(F)cc1Oc1ccnc2ccc(C(=O)N3CCC(O)CC3)cc12 [Compound 380, N-(1-(tert-butyl)-1H-pyrazol-4-yl)-2-(2-fluoro-4-((6-(4-hydroxy-piperidine-1-carbonyl)quinolin-4-yl)oxy)-5-methyl-phenyl) acetamide] | < 2.5 nM |

Same assay, conditions: RIPK2 IC50 (nM), RIPK2 5 nM, ATP 150 μM, MBP substrate

| SMILES | IC50 |
| --- | --- |
| COCCN(C)C(=O)c1ccc2nccc(Oc3cc(F)c(CC(=O)Nc4cnn(C(C)(C)C)c4)cc3C)c2c1 [Compound 368, 4-(4-(2-((1-(tert-butyl)-1H-pyrazol-4-yl)amino)-2-oxoethyl)-5-fluoro-2-methyl-phenoxy)-N-(2-methoxy-ethyl)-N-methyl-quinoline-6-carboxamide] | < 2.5 nM |
